Experimental data taken from patent US7772271B2 (priority 2004, dated 2010).

First: CC(C)OC(=O)Nc1ccc(-c2cc3ccc(Oc4nccnc4C#N)cc3n2CC2CC2)cc1 [Compound 3282]
Second: C[C@@H](OC(=O)Nc1ccc(-c2cc3ccc(Oc4nccnc4C#N)cc3n2CC2CC2)cc1)C1CC1 [Compound 3283]
The melting point of the first is higher: 181 to 182 °C for the first, 145 to 147 °C for the second.

First: C[C@@H](OC(=O)Nc1ccc(-c2cc3ccc(Oc4nccnc4C#N)cc3n2CC2CC2)cc1)C(F)(F)F [Compound 3284]
Second: N#Cc1nccnc1Oc1ccc2c(C#N)c(-c3ccc(NS(=O)(=O)C4CCC4)cc3)n(CC3CC3)c2c1 [Compound 3295]
The melting point of the first is lower: 99 to 101 °C for the first, 236 to 238 °C for the second.

Compared with `Cc1cc(Nc2ccc(-c3c(C#N)c4ccc(Oc5nccnc5C#N)cc4n3C3CCC3)cc2)n(C)n1` [Compound 3286], `Cc1ccnc(Oc2ccc3c(C#N)c(-c4ccc(Nc5cc(C)nn5C)cc4)n(C4CCC4)c3c2)n1` [Compound 3287] is lower in melting point: 233 to 235 °C for the first, 166 to 168 °C for the second.

Compared with `CCCS(=O)(=O)Nc1ccc(-c2c(C#N)c3ccc(Oc4nccnc4C#N)cc3n2C2CCC2)cc1C` [Compound 3288], `Cc1cc(-c2c(C#N)c3ccc(Oc4nccnc4C#N)cc3n2C2CCC2)ccc1NS(=O)(=O)CC(C)C` [Compound 3289] is lower in melting point: 215 to 217 °C for the first, 177 to 178 °C for the second.

Compared with `CCCS(=O)(=O)Nc1ccc(-c2c(C#N)c3ccc(Oc4ncccc4C#N)cc3n2C2CCC2)cc1C` [Compound 3290], `CCCS(=O)(=O)Nc1cc(C)c(-c2c(C#N)c3ccc(Oc4ncccc4C#N)cc3n2C2CCC2)cc1C` [Compound 3335] is higher in melting point: 176 to 180 °C for the first, 227 to 230 °C for the second.

First: N#Cc1c(-c2ccc(NCC(F)F)cc2)n(C2CCC2)c2ccc(OCC(F)F)cc12 [Compound 3292]
Second: CCOc1ccc2c(C#N)c(-c3ccc(NC(=O)NCCO)cc3)n(C3CCC3)c2c1 [compound 1408, 1-[4-(3-cyano-1-cyclobutyl-6-ethoxy-1H-indol-2-yl)-phenyl]-3-(2-hydroxy-ethyl)-urea]
The melting point of the first is lower: 159 to 161 °C for the first, 199 to 203 °C for the second.

First: CCCS(=O)(=O)Nc1ccc(-c2c(C#N)c3ccc(OCCCN4C(=O)CCC4=O)cc3n2C2CCC2)cc1 [Compound 3296]
Second: CCCS(=O)(=O)Nc1ccc(-c2c(C#N)c3ccc(OCCCN4C(=O)CN(C)C4=O)cc3n2C2CCC2)cc1 [Compound 3299]
The melting point of the first is higher: 215 to 216 °C for the first, 178 to 179 °C for the second.

Compared with `CN(C)/C=N/c1ccc(-c2c(C#N)c3ccc(Oc4ncccn4)cc3n2C2CCC2)cc1Cl` [Compound 3300], `CC(C)Nc1ccc(-c2c(C#N)c3ccc(Oc4ncccn4)cc3n2C2CCC2)cn1` [Compound 3312] is lower in melting point: 215 to 216 °C for the first, 206 to 208 °C for the second.

First: CCCS(=O)(=O)Nc1ccc(-c2c(C#N)c3ccc(Oc4cnccc4C#N)cc3n2CC2CC2)c(C)c1 [Compound 3303]
Second: CCCS(=O)(=O)Nc1ccc(-c2c(C#N)c3ccc(Oc4ncccc4C#N)cc3n2CC2CC2)c(Cl)c1 [Compound 3306]
The melting point of the first is lower: 138 to 142 °C for the first, 218 to 220 °C for the second.

Compared with `CCCS(=O)(=O)Nc1ccc(-c2c(C#N)c3ccc(Oc4ncccc4C#N)cc3n2C2CC2)c(C)c1` [Compound 3304], `CCCS(=O)(=O)Nc1ccc(-c2c(C#N)c3ccc(Oc4ncccc4C#N)cc3n2C2CCC2)c(F)c1` [Compound 3346] is lower in melting point: 222 to 226 °C for the first, 113 to 116 °C for the second.

First: CCCS(=O)(=O)Nc1ccc(-c2c(C#N)c3ccc(Oc4nccnc4C#N)cc3n2C2CC2)c(C)c1 [Compound 3305]
Second: CCCS(=O)(=O)Nc1cc(C)c(-c2c(C#N)c3ccc(Oc4nccnc4C#N)cc3n2C2CCC2)cc1C [Compound 3336]
The melting point of the first is lower: 225 to 228 °C for the first, 257 to 259 °C for the second.

Compared with `CCCS(=O)(=O)Nc1ccc(-c2c(C#N)c3ccc(Oc4nccnc4C#N)cc3n2CC2CC2)c(Cl)c1` [Compound 3307], `CCCS(=O)(=O)Nc1ccc(-c2c(C#N)c3ccc(Oc4ncccc4C#N)cc3n2C2CCC2)c(OC)c1` [Compound 3344] is lower in melting point: 243 to 246 °C for the first, 227 to 230 °C for the second.

Compared with `CCCS(=O)(=O)Nc1ccc(-c2c(C#N)c3ccc(Oc4ncccc4C(=O)OCC)cc3n2C2CCC2)cc1` [Compound 3308], `CCCS(=O)(=O)Nc1ccc(-c2c(C#N)c3ccc(Oc4ncccc4C(C)=O)cc3n2C2CCC2)cc1` [Compound 3311] is higher in melting point: 138 to 142 °C for the first, 191 to 194 °C for the second.

Compared with `CCCS(=O)(=O)Nc1ccc(-c2c(C#N)c3ccc(Oc4nc(C)ccc4C#N)cc3n2C2CCC2)cc1` [Compound 3309], `Cc1cccn(-c2ccc3c(C#N)c(-c4ccc(NS(=O)(=O)CC(C)C)cc4)n(C4CCC4)c3c2)c1=O` [Compound 3340] is higher in melting point: 219 to 221 °C for the first, 290 to 291 °C for the second.

Compared with `N#Cc1c(-c2ccc(NC3CC3)nc2)n(C2CCC2)c2cc(Oc3ncccn3)ccc12` [Compound 3313], `N#Cc1c(-c2ccc(NC3CCC3)nc2)n(C2CCC2)c2cc(Oc3ncccn3)ccc12` [Compound 3348] is lower in melting point: 244 to 246 °C for the first, 229 to 231 °C for the second.

First: C[C@H](NS(=O)(=O)Nc1ccc(-c2c(C#N)c3ccc(N4CCOCC4)cc3n2C2CCC2)cc1)C1CC1 [Compound 3314]
Second: Cc1cccn(-c2ccc3c(C#N)c(-c4ccc(NC(=O)O[C@H](C)C5CC5)cc4)n(C4CCC4)c3c2)c1=O [Compound 3338]
The melting point of the first is lower: 198 to 199 °C for the first, 280 to 281 °C for the second.

First: C[C@@H](OC(=O)Nc1ccc(-c2c(C#N)c3ccc(-n4ccccc4=O)cc3n2C2CCC2)cc1)C1CC1 [Compound 3315]
Second: C[C@@H](OC(=O)Nc1ccc(-c2c(C#N)c3ccc(-n4ccccc4=O)cc3n2C2CCC2)cc1)C(F)(F)F [Compound 3316]
The melting point of the first is lower: 237 to 238 °C for the first, 244 to 245 °C for the second.

First: C[C@@H](OC(=O)Nc1ccc(-c2c(C#N)c3ccc(Oc4ncccn4)cc3n2C2CCC2)cn1)C(F)(F)F [Compound 3322]
Second: CC(C)Nc1ncc(-c2c(C#N)c3ccc(Oc4ncccn4)cc3n2C2CCC2)cn1 [Compound 3327]
The melting point of the first is higher: 227 to 229 °C for the first, 213 to 215 °C for the second.

First: CC(C)NC(=O)Nc1ccc(-c2c(C#N)c3ccc(Oc4ncccn4)cc3n2C2CCC2)cc1C#N [Compound 3325]
Second: Cc1cc(NC(=O)O[C@H](C)C2CC2)ccc1-c1c(C#N)c2ccc(Oc3ncccc3C#N)cc2n1C1CCC1 [Compound 3333]
The melting point of the first is higher: 173 to 181 °C for the first, 108 to 115 °C for the second.

First: O=S1(=O)CCCN1c1ccc(-c2cc3ccc(Oc4ncccn4)cc3n2CC2CC2)cc1 [Compound 3326]
Second: N#Cc1c(-c2cnc(NC3CC3)nc2)n(C2CCC2)c2cc(Oc3ncccn3)ccc12 [Compound 3328]
The melting point of the first is lower: 98 to 99 °C for the first, 227 to 229 °C for the second.

First: N#Cc1c(-c2cnc(NC3CCC3)nc2)n(C2CCC2)c2cc(Oc3ncccn3)ccc12 [Compound 3329]
Second: N#Cc1c(-c2cnc(NC3CCCC3)nc2)n(C2CCC2)c2cc(Oc3ncccn3)ccc12 [Compound 3330]
The melting point of the first is higher: 237 to 238 °C for the first, 230 to 231 °C for the second.

First: N#Cc1c(-c2cnc(NC3CCCCC3)nc2)n(C2CCC2)c2cc(Oc3ncccn3)ccc12 [Compound 3331]
Second: Cc1cc(NC(=O)O[C@H](C)C2CC2)ccc1-c1c(C#N)c2ccc(Oc3nccnc3C#N)cc2n1C1CCC1 [Compound 3334]
The melting point of the first is higher: 217 to 218 °C for the first, 108 to 116 °C for the second.

First: Cc1cccn(-c2ccc3c(C#N)c(-c4ccc(NC(=O)OC(C)C)cc4)n(C4CCC4)c3c2)c1=O [Compound 3339]
Second: Cc1cccn(-c2ccc3c(C#N)c(-c4ccc(NC(=O)NC(C)C)cc4)n(C4CCC4)c3c2)c1=O [Compound 3342]
The melting point of the first is higher: 284 to 285 °C for the first, 266 to 267.5 °C for the second.

Compared with `Cc1cccn(-c2ccc3c(C#N)c(-c4ccc(NC(=O)O[C@H](C)C(F)(F)F)cc4)n(C4CCC4)c3c2)c1=O` [Compound 3341], `CCOC(=O)Nc1ccc(-c2c(C#N)c3ccc(OCCOC)cc3n2C2CCC2)cc1` [compound 1397, {4-[3-cyano-1-cyclobutyl-6-(2-methoxy-ethoxy)-1H-indole-2-yl]-phenyl}-carbamic acid ethyl ester] is lower in melting point: 265 to 266 °C for the first, 170 to 171 °C for the second.

First: CCn1c(-c2ccc3c(ccn3S(C)(=O)=O)c2)c(C#N)c2ccc(OC)cc21 [compound 1330, 1-ethyl-1′-methanesulfonyl-6-methoxy-1H,1′H-[2,5′]biindolyl-3-carbonitrile]
Second: CCn1c(-c2ccc3c(ccn3S(=O)(=O)CC)c2)c(C#N)c2ccc(OC)cc21 [compound 1331]
The melting point of the first is lower: 148 to 151 °C for the first, 157 to 160 °C for the second.

First: CS(=O)(=O)Nc1ccc(-c2c(C#N)c3ccc(OC(F)F)cc3n2CC2CCCO2)cc1 (centres unmarked) [compound 1334, N-{4-[3-cyano-6-difluoromethoxy-1-(tetrahydro-furan-2-ylmethyl)-1H-indole-2-yl]-phenyl}-methanesulfonamide]
Second: CCOc1ccc2c(C#N)c(-c3ccc(N4CCCOC4=O)cc3)n(C3CCC3)c2c1 [compound 1346, 1-cyclobutyl-6-ethoxy-2-[4-(2-oxo-[1,3]oxazinan-3-yl)-phenyl]-1H-indole-3-carbonitrile]
The melting point of the first is lower: 87 to 88 °C for the first, 226 to 228 °C for the second.

Compared with `CCOc1ccc(-c2c(C#N)c3ccc(N4CCN(C(=O)OC(C)(C)C)CC4)cc3n2CC)cc1` [compound 1337, 4-[3-cyano-2-(4-ethoxyphenyl)-1-ethylindol-6-yl]piperazine-1-carboxylic acid tert-butyl ester], `CCC(=O)Nc1ccc(-c2c(C#N)c3ccc(N4CCN(C)CC4)cc3n2CC)cc1` [compound 1341, N-{4-[3-cyano-1-ethyl-6-(4-methylpiperazin-1-yl)-indol-2-yl]phenyl}propionamide] is lower in melting point: 183 to 184 °C for the first, 170 to 171 °C for the second.

First: CCOC(=O)Nc1ccc(-c2c(C#N)c3ccc(N4CCN(C)CC4)cc3n2CC)cc1 [compound 1339]
Second: CCN(CC)c1nc2ccc(-c3c(C#N)c4ccc(OC)cc4n3CC)cc2s1 [compound 1343, 2-(2-Diethylaminobenzothiazol-6-yl)-1-ethyl-6-methoxy-1H-indole-3-carbonitrile]
The melting point of the first is higher: 177 to 178 °C for the first, 155 to 158 °C for the second.

For `Cc1noc(C)c1-c1ccc2c(C#N)c(-c3ccc(NC(=O)O[C@H](C)C4CC4)cc3)n(C3CCC3)c2c1` [Compound 3317], the melting point was 225 °C (dec.).
In the case of `C[C@@H](OC(=O)Nc1ccc(-c2c(C#N)c3ccc(N4CCS4(=O)=O)cc3n2C2CCC2)cc1)C1CC1` [Compound 3318], the melting point is reported as 235 °C (dec.).
With `C[C@@H](OC(=O)Nc1ccc(-c2c(C#N)c3ccc(N4CCCC4=O)cc3n2C2CCC2)cc1)C1CC1` [Compound 3332] the melting point was 140 °C (dec.).
